Assay results published in patent publication US9884849B2, “Fluorinated benzofuranyl-pyrimidine derivatives containing a sulfoximine group” (Bayer Pharma Aktiengesellschaft, priority 2014, dated 2018).
Read-outs that look alike come from different tables or passages of the source.

Tests used:
CDK2/CycE = molecular target: T1, CDK2/CycE (Homo sapiens, UniProt P24941); experiment: CDK2/CycE kinase assay (Method 2a, TR-FRET); format: biochemical; settings: 10 μM ATP
T1 construct: GST; purchased ProQinase GmbH (Freiburg, Germany); host or cells: insect cells (Sf9)
Excerpt: 2a. CDK2/CycE kinase assay:
CDK2/CycE-Inhibitory Activity of Compounds of the Present Invention was Quantified Employing the CDK2/CycE TR-FRET Assay as Described in the Following Paragraphs:
Recombinant fusion proteins of GST and human CDK2 and of GST and human CycE, expressed in insect cells (Sf9) and purified by Glutathion-Sepharose affinity chromatography, were purchased from ProQinase GmbH (Freiburg, Germany). As substrate for the kinase reaction biotinylated peptide biotin-Ttds-YISPLKSPYKISEG (C-terminus in amid form) was used which can be purchased e.g. form the company JERINI Peptide Technologies (Berlin, Germany).
For the assay 50 nl of a 100 fold concentrated solution of the test compound in DMSO was pipetted into a black low volume 384 well microtiter plate (Greiner Bio-One, Frickenhausen, Germany), 2 yl of a solution of CDK2/CycE in aqueous assay buffer [50 mM Tris/HCl pH 8.0, 10 mM MgCl2, 1.0 mM dithiothreitol, 0.1 mM sodium ortho-vanadate, 0.01% (v/v) Nonidet-P40 (Sigma)] were added and the mixture was incubated for 15 min at 22° C. to allow pre-binding of the test compounds to the enzyme before the start of the kinase reaction. […] The concentration of CDK2/CycE was adjusted depending of the activity of the enzyme lot and was chosen appropriate to have the assay in the linear range, typical concentrations were in the range of 130 ng/mL. The reaction was stopped by the addition of 5 yl of a solution of TR-FRET detection reagents (0.2 μM streptavidine-XL665 [Cisbio Bioassays, Codolet, France] and 1 nM anti-RB(pSer807/pSer811)-antibody from BD Pharmingen [#558389] and 1.2 nM LANCE EU-W1024 labeled anti-mouse IgG antibody [Perkin-Elmer, product no. AD0077]) in an aqueous EDTA-solution (100 mM EDTA, 0.2% (w/v) bovine serum albumin in 100 mM HEPES/NaOH pH 7.0).
The resulting mixture was incubated 1 h at 22° C. to allow the formation of complex between the phosphorylated biotinylated peptide and the detection reagents. Subsequently the amount of phosphorylated substrate was evaluated by measurement of the resonance energy transfer from the Eu-chelate to the streptavidine-XL. Therefore, the fluorescence emissions at 620 nm and 665 nm after excitation at 350 nm was measured in a TR-FRET reader, e.g. a Rubystar (BMG Labtechnologies, Offenburg, Germany) or a Viewlux (Perkin-Elmer). The ratio of the emissions at 665 nm and at […] was taken as the measure for the amount of phosphorylated substrate. The data were normalised (enzyme reaction without inhibitor=0% inhibition, all other assay components but no enzyme=100% inhibition).

A2780 cells = experiment: Proliferation assay A2780 (Method 3); format: cell-based, human; settings: A2780, 4 days, crystal violet, read-out: Inhibition of A2780 cell proliferation IC50
Experimental: (§1) Cultivated tumour cells (HeLa, human cervical tumour cells, ATCC CCL-2; NCI-H460, human non-small cell lung carcinoma cells, ATCC HTB-177; A2780, human ovarian carcinoma cells, ECACC #93112519; DU 145, hormone-independent human prostate carcinoma cells, ATCC HTB-81; HeLa-MaTu-ADR, multidrug-resistant human cervical carcinoma cells, EPO-GmbH Berlin; Caco-2, human colorectal carcinoma cells, ATCC HTB-37; B16F10, mouse melanoma cells, ATCC CRL-6475) were plated at a density of 5,000 cells/well (DU145, HeLa-MaTu-ADR), 3,000 cells/well (NCI-H460, HeLa), 2,500 cells/well (A2780), 1,500 cells/well (Caco-2), or 1,000 cells/well (B16F10) in a 96-well multititer plate in 200 μL of their respective growth medium supplemented 10% fetal calf serum. After 24 hours, the cells of one plate (zero-point plate) were stained with crystal violet (see below), while the medium of the other plates was replaced by fresh culture medium (200 μl), to which the test substances were added in various concentrations (0 μM, as well as in the range of 0.001-10 μM; the final concentration of the solvent dimethyl sulfoxide was 0.5%). The cells were incubated for 4 days in the presence of test substances. Cell proliferation was determined by staining the cells with crystal violet: the cells were fixed by adding 20 μl/measuring point of an 11% glutaric aldehyde solution for 15 minutes at room temperature. After three washing cycles of the fixed cells with water, the plates were dried at room temperature. The cells were stained by adding 100 μl/measuring point of a 0.1% crystal violet solution (pH 3.0). After three washing cycles of the stained cells with water, the plates were dried at room temperature. The dye was dissolved by adding 100 μl/measuring point of a 10% acetic acid solution. The extinction was determined by photometry at a wavelength of 595 nm. The change of cell number, in percent, was calculated by normalization of the measured values to the extinction values of the zero-point plate (=0%) and the extinction of the untreated (0 μm) cells (=100%). The IC50 values (inhibitory concentration at 50% of maximal effect) were determined by means of a 4 parameter fit.

HeLa-MaTu-ADR cells = experiment: Proliferation assay HeLa-MaTu-ADR (Method 3); format: cell-based, human; settings: 4 days, crystal violet, read-out: Inhibition of HeLa-MaTu-ADR cell proliferation IC50
Experimental: as §1

NCI-H460 cells = experiment: Proliferation assay NCI-H460 (Method 3); format: cell-based, human; settings: NCI-H460, 4 days, crystal violet, read-out: Inhibition of NCI-H460 cell proliferation IC50
Experimental: as §1

B16F10 cells = experiment: Proliferation assay B16F10 (Method 3); format: cell-based, mouse; settings: 4 days, crystal violet, read-out: Inhibition of Bc6F10 cell proliferation IC50
Experimental: as §1

Structure (SMILES)	IC50 (CDK2/CycE) [nM]	IC50 (A2780 cells; Homo sapiens, A2780, 96 h) [nM]	IC50 (HeLa-MaTu-ADR cells; Homo sapiens, 96 h) [nM]	IC50 (NCI-H460 cells; Homo sapiens, NCI-H460, 96 h) [nM]	IC50 (B16F10 cells; Mus musculus, B16-F10, 96 h) [nM]	IC50 (A2780 cells) [nM]	IC50 (HeLa-MaTu-ADR cells) [nM]	IC50 (NCI-H460 cells) [nM]	IC50 (B16F10 cells) [nM]
CS(=O)(Cc1cccc(Nc2ncc(F)c(-c3ccc(F)c4ccoc34)n2)c1)=NC#N (racemic) [Example 1, (rac)-[(3-{[5-Fluoro-4-(4-fluoro-1-benzofuran-7-yl)pyrimidin-2-yl]amino}benzyl)(methyl)oxido-λ^6-sulfanylidene]cyanamide]	75	46	134	189	170				
CS(=N)(=O)Cc1cccc(Nc2ncc(F)c(-c3ccc(F)c4ccoc34)n2)c1 (racemic) [Example 4, (rac)-5-Fluoro-4-(4-fluoro-1-benzofuran-7-yl)-N-{3-[(S-methylsulfonimidoyl)-methyl]phenyl}-pyrimidin-2-amine]	110	53	143	181	211				
CS(=O)(Cc1cc(F)cc(Nc2ncc(F)c(-c3ccc(F)c4ccoc34)n2)c1)=NC#N (racemic) [Example 7, (rac)-[(3-Fluoro-5-{[5-fluoro-4-(4-fluoro-1-benzofuran-7-yl)pyrimidin-2-yl]amino}benzyl)(methyl)-oxido-λ^6-sulfanylidene]cyanamide]	56	23	60	104	64				
CS(=O)(Cc1cccc(Nc2ncc(F)c(-c3ccc(F)c4ccoc34)n2)c1)=NC#N (single isomer, unassigned) [Example 2, [(3-{[5-Fluoro-4-(4-fluoro-1-benzofuran-7-yl)pyrimidin-2-yl]amino}benzyl)(methyl)oxido-λ^6-sulfanylidene]cyanamide]	19					55	87	117	75
CS(=O)(Cc1cccc(Nc2ncc(F)c(-c3ccc(F)c4ccoc34)n2)c1)=NC#N (single isomer, unassigned) [Example 3, [(3-{[5-Fluoro-4-(4-fluoro-1-benzofuran-7-yl)pyrimidin-2-yl]amino}benzyl)(methyl)oxido-λ^6-sulfanylidene]cyanamide]	45	67	118	188	136				
CS(=N)(=O)Cc1cccc(Nc2ncc(F)c(-c3ccc(F)c4ccoc34)n2)c1 (single isomer, unassigned) [Example 5, 5-Fluoro-4-(4-fluoro-1-benzofuran-7-yl)-N-{3-[(S-methylsulfonimidoyl)-methyl]-phenyl}-pyrimidin-2-amine]	89		190	343	260	93			
CS(=N)(=O)Cc1cccc(Nc2ncc(F)c(-c3ccc(F)c4ccoc34)n2)c1 (single isomer, unassigned) [Example 6, 5-Fluoro-4-(4-fluoro-1-benzofuran-7-yl)-N-{3-[(S-methylsulfonimidoyl)-methyl]-phenyl}-pyrimidin-2-amine]	57					38	96	314	185

Second part, the compound after the results:

IC50 (CDK2/CycE) [nM]	IC50 (A2780 cells; Homo sapiens, A2780, 96 h) [nM]	IC50 (HeLa-MaTu-ADR cells; Homo sapiens, 96 h) [nM]	IC50 (NCI-H460 cells; Homo sapiens, NCI-H460, 96 h) [nM]	IC50 (B16F10 cells; Mus musculus, B16-F10, 96 h) [nM]	IC50 (A2780 cells) [nM]	IC50 (HeLa-MaTu-ADR cells) [nM]	IC50 (NCI-H460 cells) [nM]	IC50 (B16F10 cells) [nM]	Structure (SMILES)
50	37		112	58					CS(=N)(=O)Cc1cc(F)cc(Nc2ncc(F)c(-c3ccc(F)c4ccoc34)n2)c1 (racemic) [Example 10, (rac)-5-Fluoro-4-(4-fluoro-1-benzofuran-7-yl)-N-{3-fluoro-5-[(S-methylsulfonimidoyl)-methyl]-phenyl}-pyrimidin-2-amine]
41	34	37	118	49					Cc1cc(CS(C)(=O)=NC#N)cc(Nc2ncc(F)c(-c3ccc(F)c4ccoc34)n2)c1 (racemic) [Example 13, (rac)-[(3-{[5-Fluoro-4-(4-fluoro-1-benzofuran-7-yl)pyrimidin-2-yl]amino}-5-methylbenzyl)-(methyl)oxido-λ^6-sulfanylidene]cyanamide]
80	35	41	120	82					Cc1cc(CS(C)(=N)=O)cc(Nc2ncc(F)c(-c3ccc(F)c4ccoc34)n2)c1 (racemic) [Example 16, (rac)-5-Fluoro-4-(4-fluoro-1-benzofuran-7-yl)-N-{3-methyl-5-[(S-methylsulfonimidoyl)-methyl]phenyl}pyrimidin-2-amine]
257	98	98	192	118					CS(=O)(Cc1cc(Nc2ncc(F)c(-c3ccc(F)c4ccoc34)n2)cc(S(F)(F)(F)(F)F)c1)=NC#N (racemic) [Example 17, (rac)-{[3-{[5-fluoro-4-(4-fluoro-1-benzofuran-7-yl)pyrimidin-2-yl]amino}-5-(pentafluoro-λ^6-sulfanyl)benzyl](methyl)oxido-λ^6-sulfanylidene}cyanamide]
73	34	116	136	168					CS(=N)(=O)Cc1cc(Nc2ncc(F)c(-c3ccc(F)c4ccoc34)n2)cc(S(F)(F)(F)(F)F)c1 (racemic) [Example 18, (rac)-5-Fluoro-4-(4-fluoro-1-benzofuran-7-yl)-N-{3-[(S-methylsulfonimidoyl)methyl]-5-(pentafluoro-λ^6-sulfanyl)phenyl}pyrimidin-2-amine]
62	37	35	119	56					CS(=O)(Cc1cc(F)cc(Nc2ncc(F)c(-c3ccc(F)c4ccoc34)n2)c1)=NC#N (single isomer, unassigned) [Example 8, [(3-Fluoro-5-{[5-fluoro-4-(4-fluoro-1-benzofuran-7-yl)pyrimidin-2-yl]amino}benzyl)(methyl)-oxido-λ^6-sulfanylidene]cyanamide]
